Holding throughout (format): cell-based
Holding throughout (settings): Hepatitis C virus

Assay [1] has as its system GT2a-2a-J6 replicon. In words: Stable replicon assay, comparison to daclatasvir, GT2a-2a-J6. An excerpt:
(§1) The plasmid pSG-hRlucNeo-JFH1 was generated from pSG-Neo-JFH1 (Kato et al. 2003, Gastroentrology 125:1808-1817). A fragment containing the JFH-1 5′ NTR-hRluc-Neo gene and two unique restriction sites (AgeI and PmeI) was synthesized (Integrated DNA Technologies, Coralville, Iowa). The resulting plasmid was digested with AgeI and PmeI and the excised fragment (5′NTR-hRluc-Neo) was ligated into pSG-Neo-JFH1 digested with the same enzymes to generate pSG-hRlucNeo-JFH1. To allow expression of heterologous NS5A sequences, an NS5A shuttle vector was generated from pSG-Neo-JFH1, in which the entire coding sequence of NS5A plus the first eight codons of NS5B were replaced with an AfeI restriction site. This was done by Infusion cloning (Clontech, Mountain View, Calif.) from two PCR products that were generated using pSG-Neo-JFH1 as a template and the following primer pairs: […]
(§2) Stable HCV replicon cell lines were grown in complete media (Dulbecco's modified Eagle medium [DMEM], 2 mM L-glutamine, 0.1 mM essential amino acids, 1 mM sodium pyruvate, 10% fetal bovine serum) with the addition 500 μg/ml […] (G418). […] For stable and transient replicon assays, luciferase activity of compound-treated cells was measured relative to DMSO-treated cells after 72 h incubation using RENILLA-GLO™ Luciferase Assay (Promega). […]

Assay [2] relates to GT2a-2b-MD2b replicon. The assay is described as follows: Stable replicon assay, comparison to daclatasvir, GT2a-2b-MD2b.
Source text: as §1, §2

In assay [3] the test system is HCV genotype 1a replicon, NS5A L31V. The assay is described as follows: Transient replication assay, GT1a NS5A L31V.
For assay [4], the system named is HCV genotype 1a replicon, NS5A Q30H. The assay is described as follows: Transient replication assay, GT1a NS5A Q30H.
In assay [5] the test system is HCV genotype 1a replicon, NS5A Q30K. In words: Transient replication assay, GT1a NS5A Q30K.
Assay [6] relates to HCV genotype 1a replicon, NS5A Y93C. In words: Transient replication assay, GT1a NS5A Y93C.
Assay [7] concerns HCV genotype 1a replicon, NS5A Y93N. The assay is described as follows: Transient replication assay, GT1a NS5A Y93N.
The test system of assay [8] is HCV genotype 1a replicon, NS5A M28T Q30H. The assay is described as follows: Transient replication assay, GT1a NS5A M28T Q30H.
In assay [9] the test system is HCV genotype 1a replicon, NS5A M28V Y93H. The assay is described as follows: Transient replication assay, GT1a NS5A M28V Y93H.
Assay [10] has as its system HCV genotype 1a replicon, NS5A M28V Q30R. The assay is described as follows: Transient replication assay, GT1a NS5A M28V Q30R.
The subject of assay [11] is HCV genotype 1a replicon, NS5A Q30R Y93C. The assay is described as follows: Transient replication assay, GT1a NS5A Q30R Y93C.

Molecules are shown by their SMILES. pEC50: −log10 of the molar value.

For `COC(=O)N[C@H](C(=O)N1C[C@]2(CCCOC2)C[C@H]1c1ncc(-c2ccc(-c3ccc4c(ccc5nc([C@@H]6C[C@@H]7CCC[C@@H]7N6C(=O)[C@@H](NC(=O)OC)C(C)C)[nH]c54)c3)cc2)[nH]1)C(C)C` [Compound 16], the pEC50 in assay [1] was 9.31; in [2], 7.68; in assay [3] it was 9.82; in assay [4], 11.22; in [5] it was 10.30; in assay [6] it was 9.66. Also, the pEC50 in assay [7] was 7.72; in [8] it was 7.62; in assay [9], 7.82; in assay [10], 9.80; in assay [11], 8.85.
Take `COC(=O)N[C@H](C(=O)N1CCC[C@H]1c1nc(-c2ccc(-c3ccc(-c4c[nH]c([C@@H]5CCCN5C(=O)[C@@H](NC(=O)OC)C(C)C)n4)cc3)cc2)c[nH]1)C(C)C` [Daclatasvir, reference compound]: the pEC50 was 8.24 in assay [1]; 7.48 in assay [2]; 8.35 in assay [3]; 9.10 in assay [4]; 8.10 in [5]; 8.49 in [6]. Further, the pEC50 in assay [7] was 6.92; in assay [8] it was 6.13; in assay [9], 7.76; in assay [10], 8.92; in assay [11] it was 7.59.

The record behind these values is US10407445B2, “Hepatitis C virus inhibitors” (ENANTA PHARMACEUTICALS, INC., priority 2013, dated 2019).
